Assay results published in patent publication US20210045385A1, “PYRIDAZINONE-SUBSTITUTED KETOXIMES AS HERBICIDES” (FMC Corporation, priority 2018, published 2021).

Experiments:
Format in all cases: in vivo
[1] = system: barnyardgrass (Echinochloa crus-galli); experiment: Test A postemergence, visual plant response rating; details: for Barnyardgrass plant response rating (0 to 100 scale): 500 g ai/ha, postemergence, 0 is no effect, 100 is complete control; for Barnyardgrass plant response rating: Postemergence, 125 g ai/ha, 0 to 100 scale (0 no effect, 100 complete control)
From the text: (§1) Seeds of plant species selected from barnyardgrass (Echinochloa crus-galli), kochia (Kochia scoparia), ragweed (common ragweed, Ambrosia elatior), Italian ryegrass (Lolium multiflorum), foxtail, giant (giant foxtail, Setaria faberii), foxtail, green (green foxtail, Setaria viridis), and pigweed (Amaranthus retroflexus) were planted into a blend of loam soil and sand and treated preemergence with a directed soil spray using test chemicals formulated in a non-phytotoxic solvent mixture which included a surfactant.
(§2) At the same time, plants selected from these weed species and also wheat (Triticum aestivum), corn (Zea mays), blackgrass (Alopecurus myosuroides), and galium (catchweed bedstraw, Galium aparine) were planted in pots containing the same blend of loam soil and sand and treated with postemergence applications of test chemicals formulated in the same manner. Plants ranged in height from 2 to 10 cm and were in the one- to two-leaf stage for the postemergence treatment. Treated plants and untreated controls were maintained in a greenhouse for approximately 10 days, after which time all treated plants were compared to untreated controls and visually evaluated for injury. Plant response ratings, summarized in Table A, are based on a 0 to 100 scale where 0 is no effect and 100 is complete control. A dash (-) response means no test result.

[2] = system: blackgrass (Alopecurus myosuroides); experiment: Test A postemergence, visual plant response rating; details: for Blackgrass plant response rating (0 to 100 scale): 500 g ai/ha, postemergence, 0 is no effect, 100 is complete control; for Blackgrass plant response rating: Postemergence, 125 g ai/ha, 0 to 100 scale (0 no effect, 100 complete control)
From the text: as §1, §2

[3] = system: foxtail, giant (giant foxtail, Setaria faberii); experiment: Test A postemergence, visual plant response rating; details: for Foxtail, Giant plant response rating (0 to 100 scale): 500 g ai/ha, postemergence, 0 is no effect, 100 is complete control; for Foxtail, Giant plant response rating: Postemergence, 125 g ai/ha, 0 to 100 scale (0 no effect, 100 complete control)
From the text: as §1, §2

[4] = system: ragweed (common ragweed, Ambrosia elatior); experiment: Test A postemergence, visual plant response rating; details: for Ragweed plant response rating (0 to 100 scale): 500 g ai/ha, postemergence, 0 is no effect, 100 is complete control; for Ragweed plant response rating: Postemergence, 125 g ai/ha, 0 to 100 scale (0 no effect, 100 complete control)
From the text: as §1, §2

[5] = system: galium (catchweed bedstraw, Galium aparine); experiment: Test A postemergence, visual plant response rating; details: for Galium plant response rating (0 to 100 scale): 500 g ai/ha, postemergence, 0 is no effect, 100 is complete control; for Galium plant response rating: Postemergence, 125 g ai/ha, 0 to 100 scale (0 no effect, 100 complete control)
From the text: as §1, §2

kochia (Kochia scoparia) [6] = experiment: Test A postemergence, visual plant response rating; details: for Kochia plant response rating (0 to 100 scale): 500 g ai/ha, postemergence, 0 is no effect, 100 is complete control; for Kochia plant response rating: Postemergence, 125 g ai/ha, 0 to 100 scale (0 no effect, 100 complete control)
From the text: as §1, §2

[7] = system: pigweed (Amaranthus retroflexus); experiment: Test A postemergence, visual plant response rating; details: for Pigweed plant response rating (0 to 100 scale): 500 g ai/ha, postemergence, 0 is no effect, 100 is complete control; for Pigweed plant response rating: Postemergence, 125 g ai/ha, 0 to 100 scale (0 no effect, 100 complete control)
From the text: as §1, §2

[8] = system: wheat (Triticum aestivum); experiment: Test A postemergence, visual plant response rating; details: for Wheat plant response rating (0 to 100 scale): 500 g ai/ha, postemergence, 0 is no effect, 100 is complete control; for Wheat plant response rating: Postemergence, 125 g ai/ha, 0 to 100 scale (0 no effect, 100 complete control)
From the text: as §1, §2

[9] = system: Italian ryegrass (Lolium multiflorum); experiment: Test A postemergence, visual plant response rating; details: for Ryegrass, Italian plant response rating (0 to 100 scale): 500 g ai/ha, postemergence, 0 is no effect, 100 is complete control; for Ryegrass, Italian plant response rating: Postemergence, 125 g ai/ha, 0 to 100 scale (0 no effect, 100 complete control)
From the text: as §1, §2

corn (Zea mays) = experiment: Test A postemergence, visual plant response rating; details: for Corn plant response rating (0 to 100 scale): 500 g ai/ha, postemergence, 0 is no effect, 100 is complete control; for Corn plant response rating: Postemergence, 125 g ai/ha, 0 to 100 scale (0 no effect, 100 complete control)
From the text: as §1, §2

[10] = system: barnyardgrass (Echinochloa crus-galli); experiment: Test A preemergence, visual plant response rating; details: for Barnyardgrass plant response rating (0 to 100 scale): approx. 10 days
From the text: as §1, §2

[11] = system: foxtail, giant (giant foxtail, Setaria faberii); experiment: Test A preemergence, visual plant response rating; details: for Foxtail, Giant plant response rating (0 to 100 scale): approx. 10 days
From the text: as §1, §2

[12] = system: ragweed (common ragweed, Ambrosia elatior); experiment: Test A preemergence, visual plant response rating; details: for Ragweed plant response rating (0 to 100 scale): approx. 10 days
From the text: as §1, §2

kochia (Kochia scoparia) [13] = experiment: Test A preemergence, visual plant response rating; details: for Kochia plant response rating (0 to 100 scale): approx. 10 days
From the text: as §1, §2

[14] = system: pigweed (Amaranthus retroflexus); experiment: Test A preemergence, visual plant response rating; details: for Pigweed plant response rating (0 to 100 scale): approx. 10 days
From the text: as §1, §2

[15] = system: Italian ryegrass (Lolium multiflorum); experiment: Test A preemergence, visual plant response rating; details: for Ryegrass, Italian plant response rating (0 to 100 scale): approx. 10 days
From the text: as §1, §2

[16] = system: barnyardgrass (Echinochloa crus-galli); experiment: Test B flooded paddy test, visual plant response rating; details: 250 g ai/ha, Flood, applied to paddy water, 2-leaf stage, evaluated after 13 to 15 days
Procedure: (§3) Plant species in the flooded paddy test selected from rice (Oryza sativa), sedge, umbrella (small-flower umbrella sedge, Cyperus difformis), ducksalad (Heteranhera limosa), and barnyardgrass (Echinochloa crus-galli) were grown to the 2-leaf stage for testing. At time of treatment, test pots were flooded to 3 cm above the soil surface treated by application of test compounds directly to the paddy water, and then maintained at that water depth for the duration of the test. Treated plants and controls were maintained in a greenhouse for 13 to 15 days, after which time all species were compared to controls and visually evaluated. […] A dash (-) response means no test result.

[17] = system: ducksalad (Heteranhera limosa); experiment: as above; details: 250 g ai/ha, Flood, applied to paddy water, 2-leaf stage, evaluated after 13 to 15 days
Procedure: as §3

[18] = system: sedge, umbrella (small-flower umbrella sedge, Cyperus difformis); experiment: as above; details: 250 g ai/ha, Flood, applied to paddy water, 2-leaf stage, evaluated after 13 to 15 days
Procedure: as §3

rice (Oryza sativa) = experiment: as above; details: 250 g ai/ha, Flood, applied to paddy water, 2-leaf stage, evaluated after 13 to 15 days
Procedure: as §3

[19] = 125 g ai/ha, preemergence, 0 to 100 scale, 0 no effect, 100 complete control

C#CCn1nc(C)c(O)c(C(=NOC)c2cccc(Cl)c2)c1=O (mixture of isomers) [Compound 3]
10: Blackgrass plant response rating [2] | Foxtail, Giant plant response rating [3] | Kochia plant response rating (kochia (Kochia scoparia) [6]) | Wheat plant response rating (0 to 100 scale) [8] | Foxtail, Giant plant response rating (0 to 100 scale) ([11]; 500 g ai/ha Preemergence) | Ragweed plant response rating (0 to 100 scale) ([12]; 125 g ai/ha Preemergence) | Ragweed plant response rating (0 to 100 scale) ([12]; 500 g ai/ha Preemergence) | Kochia plant response rating (0 to 100 scale) (kochia (Kochia scoparia) [13]; 125 g ai/ha Preemergence) | Kochia plant response rating (0 to 100 scale) (kochia (Kochia scoparia) [13]; 500 g ai/ha Preemergence) | Pigweed plant response rating (0 to 100 scale) ([14]; 500 g ai/ha Preemergence)
60: Ragweed plant response rating (0 to 100 scale) [4]
70: Galium plant response rating (0 to 100 scale) [5] | Ryegrass, Italian plant response rating (0 to 100 scale) ([15]; 500 g ai/ha Preemergence)
80: Ryegrass, Italian plant response rating (0 to 100 scale) [9]
50: Blackgrass plant response rating (0 to 100 scale) [2] | Kochia plant response rating (0 to 100 scale) (kochia (Kochia scoparia) [6]) | Pigweed plant response rating (0 to 100 scale) [7]
30: Galium plant response rating [5] | Ryegrass, Italian plant response rating (0 to 100 scale) ([15]; 125 g ai/ha Preemergence)
20: Ragweed plant response rating [4] | Pigweed plant response rating [7] | Ryegrass, Italian plant response rating [9] | Corn plant response rating (0 to 100 scale) (corn (Zea mays)) | Barnyardgrass plant response rating (0 to 100 scale) ([10]; 500 g ai/ha Preemergence)
40: Barnyardgrass plant response rating (0 to 100 scale) [1] | Foxtail, Giant plant response rating (0 to 100 scale) [3]
0: Barnyardgrass plant response rating [1] | Wheat plant response rating [8] | Corn plant response rating (corn (Zea mays)) | Barnyardgrass plant response rating (0 to 100 scale) ([10]; 125 g ai/ha Preemergence) | Foxtail, Giant plant response rating (0 to 100 scale) ([11]; 125 g ai/ha Preemergence) | Pigweed plant response rating (0 to 100 scale) ([14]; 125 g ai/ha Preemergence) | Plant response rating, Barnyardgrass (0 to 100 scale, 0 is no effect, 100 is complete control) [16] | Plant response rating, Ducksalad (0 to 100 scale, 0 is no effect, 100 is complete control) [17] | Plant response rating, Sedge, Umbrella (0 to 100 scale, 0 is no effect, 100 is complete control) [18] | Plant response rating, Rice (0 to 100 scale, 0 is no effect, 100 is complete control) (rice (Oryza sativa))

C#CCO/N=C(/c1c(O)c(C)nn(C)c1=O)c1cc(Br)cc2ccccc12 [Compound 112, 4-[(E)-(3-bromo-1-naphthalenyl)[(2-propyn-1-yloxy)imino]methyl]-5-hydroxy-2,6-dimethyl-3(2H)-pyridazinone]
60: Plant response rating, Ducksalad (0 to 100 scale, 0 is no effect, 100 is complete control) [17] | Plant response rating, Sedge, Umbrella (0 to 100 scale, 0 is no effect, 100 is complete control) [18]
70: Kochia plant response rating (kochia (Kochia scoparia) [6]) | Wheat plant response rating (0 to 100 scale) [8]
100: Blackgrass plant response rating (0 to 100 scale) [2] | Blackgrass plant response rating [2] | Ragweed plant response rating (0 to 100 scale) [4] | Ragweed plant response rating [4] | Galium plant response rating (0 to 100 scale) [5] | Galium plant response rating [5] | Pigweed plant response rating (0 to 100 scale) [7] | Ryegrass, Italian plant response rating (0 to 100 scale) [9] | Barnyardgrass plant response rating [10, 19] | Barnyardgrass plant response rating (0 to 100 scale) ([10]; 500 g ai/ha Preemergence) | Foxtail, Giant plant response rating [11, 19] | Foxtail, Giant plant response rating (0 to 100 scale) ([11]; 500 g ai/ha Preemergence) | Pigweed plant response rating [14, 19] | Pigweed plant response rating (0 to 100 scale) ([14]; 500 g ai/ha Preemergence) | Ryegrass, Italian plant response rating [15, 19] | Ryegrass, Italian plant response rating (0 to 100 scale) ([15]; 500 g ai/ha Preemergence)
55: Plant response rating, Barnyardgrass (0 to 100 scale, 0 is no effect, 100 is complete control) [16]
90: Barnyardgrass plant response rating (0 to 100 scale) [1] | Foxtail, Giant plant response rating (0 to 100 scale) [3] | Foxtail, Giant plant response rating [3] | Kochia plant response rating (0 to 100 scale) (kochia (Kochia scoparia) [6]) | Pigweed plant response rating [7] | Ryegrass, Italian plant response rating [9] | Corn plant response rating (0 to 100 scale) (corn (Zea mays)) | Ragweed plant response rating [12, 19] | Ragweed plant response rating (0 to 100 scale) ([12]; 500 g ai/ha Preemergence)
50: Wheat plant response rating [8] | Kochia plant response rating (kochia (Kochia scoparia) [13]; [19])
80: Barnyardgrass plant response rating [1] | Kochia plant response rating (0 to 100 scale) (kochia (Kochia scoparia) [13]; 500 g ai/ha Preemergence)
20: Corn plant response rating (corn (Zea mays))
0: Plant response rating, Rice (0 to 100 scale, 0 is no effect, 100 is complete control) (rice (Oryza sativa))
